# Measured values published in US12496301B2, “Use of androgen receptor degrader for the treatment of spinal and bulbar muscular atrophy” (Arvinas Operations, Inc., priority 2023, dated 2025).
# What was measured:
# polyQ-AR = experiment: Myotube high content imaging of polyQ-AR in myotubes that overexpress polyQ-AR; format: cell-based, human; conditions: 24 hours treatment, nuclear compartment
# Method: Cells were maintained in skeletal growth medium (PromoCell #23160). Immortalized myoblasts harboring inducible human androgen receptor with 56 CAG repeats (hAR56Q) were constructed by lentiviral transduction with CMV-rtTA and TetO-AR56Q-T2A-Puromycin (Mamchaoui, K. et al. Skeletal Muscle 1, 34 (2011)).
# On day 0, immortalized myoblasts with inducible polyQ-AR (described above in “Cell lines”) cells were seeded onto Geltrex-coated 96-well plates at a density of 4×10^6 cells per plate in myoblast basal media (Promocell C-23060) supplemented with 1% penicillin-streptomycin (Pen Strep) antibiotics. The plates were then incubated overnight at 37° C. in a 5% CO2 environment. Upon reaching 100% confluency (Day 1), the myoblast media were aspirated and replaced with myotube differentiation media (Promocell C-23061). The cells were cultured in this differentiation media for 6 days, with media changes occurring every three days.
# On the sixth day of differentiation, the compounds and doxycycline ([…]) diluted in 100% dimethyl sulfoxide (DMSO) were added to the myotubes. The plate was then incubated for 24 hours at 37° C. in an incubator. On the following day (Day 7), the culture media was removed from the plates and replaced with 50 μL of 4% paraformaldehyde (PFA) prepared in 1× phosphate-buffered saline (PBS). The plates were incubated with PFA for 15 minutes, followed by three washes with PBS. Subsequently, the myotubes were permeabilized for 15 minutes using 0.5% Triton X-100 in 1×PBS and then blocked with 5% Bovine Serum Albumin (BSA) (Thermofisher, #37520) for one hour at room temperature. After blocking, the plates were incubated overnight at 4° C. with primary antibodies: a 1:100 diluted Androgen Receptor antibody (D6F11 Cell Signaling 5135S) and a 1:200 diluted Desmin antibody (Thermofisher, MA1-22150) in PBS containing 0.1% BSA. […] Degradation was quantified by determining the average intensity of AR within separate nuclear and cytoplasmic compartments in Desmin positive area (myotubes).
# endogenous AR = target: T1, endogenous AR (Mus musculus, UniProt P19091); experiment: In vivo AR degradation in LABC muscle of C57Bl/6 mice (mouse AR ELISA), PK/PD
# T1 construct: from tissue; host or cells: mouse LABC muscle (C57Bl/6 and hAR100Q mice); quadriceps (hAR100Q mice)
# T1 sequence (P19091 1-899): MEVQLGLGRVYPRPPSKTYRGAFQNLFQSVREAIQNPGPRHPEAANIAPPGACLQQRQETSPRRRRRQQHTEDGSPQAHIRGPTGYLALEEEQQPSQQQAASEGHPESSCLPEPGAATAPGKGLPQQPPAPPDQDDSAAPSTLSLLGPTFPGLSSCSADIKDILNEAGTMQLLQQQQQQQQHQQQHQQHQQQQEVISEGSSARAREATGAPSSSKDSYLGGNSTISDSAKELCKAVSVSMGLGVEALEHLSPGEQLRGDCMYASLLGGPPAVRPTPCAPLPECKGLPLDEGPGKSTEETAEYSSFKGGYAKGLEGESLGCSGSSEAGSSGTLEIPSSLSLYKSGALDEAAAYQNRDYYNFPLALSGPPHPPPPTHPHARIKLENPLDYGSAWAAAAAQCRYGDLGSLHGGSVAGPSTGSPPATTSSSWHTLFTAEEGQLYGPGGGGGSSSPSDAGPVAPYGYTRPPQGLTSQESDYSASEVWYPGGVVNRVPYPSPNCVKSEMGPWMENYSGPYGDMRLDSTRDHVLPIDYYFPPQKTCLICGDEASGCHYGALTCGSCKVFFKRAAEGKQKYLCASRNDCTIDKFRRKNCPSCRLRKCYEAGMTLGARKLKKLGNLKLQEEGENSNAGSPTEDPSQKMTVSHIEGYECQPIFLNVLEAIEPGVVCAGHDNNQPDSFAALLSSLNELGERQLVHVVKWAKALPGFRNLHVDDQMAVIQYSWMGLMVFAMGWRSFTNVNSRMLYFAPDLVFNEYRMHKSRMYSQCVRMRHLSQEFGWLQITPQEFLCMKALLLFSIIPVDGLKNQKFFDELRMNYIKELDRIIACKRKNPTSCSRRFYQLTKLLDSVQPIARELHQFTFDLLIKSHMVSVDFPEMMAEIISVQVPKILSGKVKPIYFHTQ
# Method: Using six- to eight-week-old C57Bl/6 male mice, chow and water were provided ad libitum. Compounds were administered by oral gavage at the indicated dose using 5% dimethyl sulfoxide (DMSO), 95% (2% Tween 80, PEG 400) as the vehicle. Mice were euthanized by using Isoflurane inhalation (2-4% induction) followed by decapitation 24 hours post dose unless otherwise indicated. The levator ani/bulbocavernosus (LABC) muscle was dissected and immediately snap frozen and stored at −80° C. prior to analysis. Compound exposure was measured in serum and muscle lysates.
# Anti-androgen receptor rabbit polyclonal antibody, clone PG-21 (Millipore; 06-680), was diluted in BupH carbonate-bicarbonate buffer (Thermo; 28382) to a concentration of 2 μg/mL and coated onto 96-well ELISA plates by incubating 50 μL per well overnight at 37° C. Plates were washed 4× with tris-buffered saline (TBS) buffer containing 0.1% Tween-20 (TBS-0.1% T) and blocked with 3% bovine serum albumin in TBS-T for 3 hours at room temperature (200 μL per well). AR peptide standard (Creative Biomart; Cat. No. AR-9788H) and samples were diluted in 1% bovine serum albumin (BSA)/TBS-0.05% T. After the blocking period, plates were washed as above, and 50 μL of standard and samples were added. Plates were incubated overnight at 4° C. with shaking. Following the incubation period, the plates were allowed to acclimate to room temperature with shaking for 1 hour. The detection antibody (anti-AR antibody, clone EPR1535 (abcam; ab194196)), conjugated to horse radish peroxidase (HRP), was diluted 1:15000 in 1% BSA/TBS-0.05% T and co-incubated with the samples by adding 50 μL to each well and shaking for 2 hours at room temperature. Plates were washed as above. Chemiluminescent substrate (ELISABright; Advansta; K-16025) was added to the plates (100 μL per well).
# In vivo degradation of endogenous AR was evaluated for 95 compounds in murine levator ani/bulbocavernosus (LABC) muscle using a 30 mg/kg PO dose (see Example 1). The observed AR degradation for these 95 compounds ranged from 0-85% of AR in mouse LABC.
smiles,measurement,setting,value
"CC(C)N(CC1CCN(c2ncc(C(=O)N[C@H]3C(C)(C)[C@H](Oc4ccc(C#N)c(Cl)c4)C3(C)C)cn2)CC1)[C@H]1C[C@H](Oc2ccc3c(c2)C(=O)N(C2CCC(=O)NC2=O)C3=O)C1 (stereo partly shown) [Compound A, N-((1r,3r)-3-(3-chloro-4-cyanophenoxy)-2,2,4,4-tetramethylcyclobutyl)-2-(4-((((1r,3r)-3-((2-(2,6-dioxopiperidin-3-yl)-1,3-dioxoisoindolin-5-yl)oxy)cyclobutyl)(isopropyl)amino)methyl)piperidin-1-yl)pyrimidine-5-carboxamide]",mean Dmax for polyQ-AR in myotube nuclei,polyQ-AR,approximately 40%
same,time for AR levels in LABC muscle to return to normal post administration,"endogenous AR; 30 mg/kg, once per day (QD) for 3 days",about 3 days
same,time for AR to return to basal levels in LABC muscle,endogenous AR; mouse LABC muscle,48 to 72 h
same,dose that achieves AR degradation of ~50%,endogenous AR; mouse muscle,About 10 mg/kg
